Source: ChEMBL document CHEMBL1201862, “PubChem BioAssay data set” (2004)
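In this assay, cells in 96-well plates receive the compound at five concentrations for 48 hours. Endpoints are linearly interpolated between the surrounding concentrations. GI50 = concentration required for 50% inhibition of growth.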 Calls of active or inactive are those of the source. Rule as the data show it: active = GI50 up to about 1.1 µM and inactive = higher.

Legend:
Experiment in all cases: DTP human tumour cell line panel, 48 h
[1] = system: 786-0
[2] = system: A498
[3] = system: A549
[4] = system: ACHN
[5] = system: BT-549
[6] = system: CAKI-1
[7] = system: CCRF-CEM
[8] = system: COLO 205
[9] = system: DU-145
[10] = system: HCC 2998
[11] = system: HCT-116
[12] = system: HCT-15
[13] = system: HL-60
[14] = system: HOP-62
[15] = system: HOP-92
[16] = system: HT-29
[17] = system: K562
[18] = system: LOX IMVI
[19] = system: M14
[20] = system: MCF7
[21] = system: MDA-MB-231
[22] = system: MDA-MB-435
[23] = system: MDA-N
[24] = system: MOLT-4
[25] = system: NCI-H226
[26] = system: NCI-H23
[27] = system: NCI-H460
[28] = system: NCI-H522
[29] = system: OVCAR-3
[30] = system: OVCAR-4
[31] = system: OVCAR-5
[32] = system: PC-3
[33] = system: RPMI-8226
[34] = system: RXF 393
[35] = system: SF-268
[36] = system: SF-295
[37] = system: SF-539
[38] = system: SK-MEL-28
[39] = system: SK-MEL-2
[40] = system: SK-MEL-5
[41] = system: SK-OV-3
[42] = system: SN12C
[43] = system: SNB-19
[44] = system: SR
[45] = system: SW-620
[46] = system: T47D
[47] = system: TK-10
[48] = system: U-251
[49] = system: UACC-257
[50] = system: UACC-62
[51] = system: UO-31
[52] = system: EKVX
[53] = system: IGROV-1
[54] = system: KM12
[55] = system: Malme-3M
[56] = system: NCI/ADR-RES
[57] = system: OVCAR-8

Measured: GI50

O=C(CCCC(=O)N1CC(CCl)c2ccc([N+](=O)[O-])cc21)N1CC(CCl)c2ccc([N+](=O)[O-])cc21 (stereo not drawn)
> 100 µM: [12]
inactive: [1] > 100 µM | [2] 34 µM | [3] 33.3 µM | [4] > 100 µM | [5] > 100 µM | [6] > 100 µM | [7] > 100 µM | [8] > 100 µM | [9] 81.3 µM | [10] 63.8 µM | [11] > 100 µM | [13] > 100 µM | [14] > 100 µM | [15] > 100 µM | [16] > 100 µM | [17] > 100 µM | [18] > 100 µM | [19] > 100 µM | [20] > 100 µM | [21] > 100 µM | [22] > 100 µM | [23] > 100 µM | [24] > 100 µM | [25] > 100 µM | [26] > 100 µM | [27] 38.4 µM | [28] 71.4 µM | [29] > 100 µM | [30] > 100 µM | [31] > 100 µM | [32] > 100 µM | [33] 43.7 µM | [34] > 100 µM | [35] > 100 µM | [36] > 100 µM | [37] > 100 µM | [38] > 100 µM | [39] > 100 µM | [40] 97.9 µM | [41] > 100 µM | [42] > 100 µM | [43] > 100 µM | [44] 9.1 µM | [45] > 100 µM | [46] > 100 µM | [47] > 100 µM | [48] > 100 µM | [49] > 100 µM | [50] > 100 µM | [51] > 100 µM

CN(C)CCCNc1ncnc2c1ncn2C1OC(CO)C(O)C1O (stereo not drawn)
> 100 µM: [12]
inactive: [1] > 100 µM | [2] > 100 µM | [3] > 100 µM | [4] > 100 µM | [5] 92.7 µM | [6] > 100 µM | [7] > 100 µM | [8] > 100 µM | [9] > 100 µM | [52] > 100 µM | [10] > 100 µM | [11] > 100 µM | [13] > 100 µM | [14] > 100 µM | [15] > 100 µM | [16] > 100 µM | [53] 93.5 µM | [17] > 100 µM | [54] > 100 µM | [18] > 100 µM | [19] > 100 µM | [20] > 100 µM | [21] > 100 µM | [22] > 100 µM | [23] > 100 µM | [24] 54.8 µM | [55] > 100 µM | [25] > 100 µM | [26] > 100 µM | [27] > 100 µM | [28] > 100 µM | [56] > 100 µM | [29] > 100 µM | [30] > 100 µM | [31] > 100 µM | [57] > 100 µM | [32] > 100 µM | [33] > 100 µM | [34] > 100 µM | [35] > 100 µM | [36] > 100 µM | [37] > 100 µM | [38] > 100 µM | [39] > 100 µM | [40] > 100 µM | [41] > 100 µM | [42] > 100 µM | [43] > 100 µM | [44] > 100 µM | [45] > 100 µM | [46] > 100 µM | [47] > 100 µM | [48] > 100 µM | [49] > 100 µM | [50] > 100 µM | [51] > 100 µM
